Measurements published in ChEMBL document CHEMBL1158159, “Design, synthesis, and structure-affinity relationship studies in NK1 receptor ligands based on azole-fused quinolinecarboxamide moieties” (Bioorg Med Chem, 2008).

The molecules below were run against Substance-P receptor (Homo sapiens, UniProt P25103) (assay: Displacement of [125I]BH-SP to human recombinant NK1 receptor in CHO cells).
Assay type: cell-based

Substance-P receptor, sequence (P25103 whole entry): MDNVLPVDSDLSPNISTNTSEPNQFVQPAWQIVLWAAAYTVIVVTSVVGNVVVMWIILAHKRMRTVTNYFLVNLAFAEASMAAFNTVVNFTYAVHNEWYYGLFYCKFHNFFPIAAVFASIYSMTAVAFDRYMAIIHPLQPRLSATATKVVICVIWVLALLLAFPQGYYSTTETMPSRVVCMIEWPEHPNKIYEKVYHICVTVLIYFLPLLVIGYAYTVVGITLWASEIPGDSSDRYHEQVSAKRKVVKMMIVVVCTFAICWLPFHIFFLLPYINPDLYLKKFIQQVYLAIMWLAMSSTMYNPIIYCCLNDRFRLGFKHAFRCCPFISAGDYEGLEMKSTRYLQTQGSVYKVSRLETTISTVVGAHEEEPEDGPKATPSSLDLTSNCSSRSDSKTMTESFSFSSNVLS

Row | IC50 | SMILES
1 | 311 nM | O=C(NCc1cc(C(F)(F)F)cc(C(F)(F)F)c1)c1c(-c2ccccc2)c2ccccc2n2nnnc12
2 | 4.3 nM | CN(Cc1cc(C(F)(F)F)cc(C(F)(F)F)c1)C(=O)c1c(-c2ccccc2)c2ccccc2n2cncc12
3 | 55 nM | Cc1ccc(-c2c(C(=O)N(C)Cc3cc(C(F)(F)F)cc(C(F)(F)F)c3)c3nnnn3c3ccccc23)cc1
4 | 390 nM | O=C(NCc1cc(C(F)(F)F)cc(C(F)(F)F)c1)c1c(-c2ccccc2)c2ccccc2n2cccc12
5 | 401 nM | Cc1ccc(-c2c(C(=O)NCc3cc(C(F)(F)F)cc(C(F)(F)F)c3)c3nnnn3c3ccccc23)cc1
6 | 780 nM | COc1cc(CNC(=O)c2c(-c3ccccc3)c3ccccc3n3nnnc23)cc(OC)c1
7 | 235 nM | O=C(NCc1cc(C(F)(F)F)cc(C(F)(F)F)c1)c1c(-c2ccc(F)cc2)c2ccccc2n2nnnc12
8 | 38 nM | CN(Cc1cc(C(F)(F)F)cc(C(F)(F)F)c1)C(=O)c1c(-c2ccccc2)c2ccccc2n2ccnc12
9 | 26 nM | CN(Cc1cc(C(F)(F)F)cc(C(F)(F)F)c1)C(=O)c1c(-c2ccccc2)c2ccccc2n2nnnc12
10 | 21 nM | CN(Cc1cc(C(F)(F)F)cc(C(F)(F)F)c1)C(=O)c1c(-c2ccc(F)cc2)c2ccccc2n2nnnc12
11 | 146 nM | O=C(NCc1cc(C(F)(F)F)cc(C(F)(F)F)c1)c1c(-c2ccccc2)c2ccccc2n2cncc12
12 | 36 nM | CN(Cc1cc(C(F)(F)F)cc(C(F)(F)F)c1)C(=O)c1c(-c2ccccc2)c2ccccc2n2cccc12
13 | 542 nM | O=C(NCc1cc(C(F)(F)F)cc(C(F)(F)F)c1)c1c(-c2ccccc2)c2ccccc2n2cnnc12
14 | 9 nM | CN(Cc1cc(C(F)(F)F)cc(C(F)(F)F)c1)C(=O)c1c(-c2ccccc2)c2ccccc2n2cnnc12
15 | 2750 nM | COc1ccccc1CNC(=O)c1c(-c2ccccc2)c2ccccc2n2nnnc12
16 | 1230 nM | O=C(NCc1cc(C(F)(F)F)cc(C(F)(F)F)c1)c1c(-c2ccccc2)c2ccccc2n2ccnc12
